ChEMBL document CHEMBL5346921, “Discovery of novel benzamide derivatives bearing benzamidophenyl and phenylacetamidophenyl scaffolds as potential antitumor agents via targeting PARP-1” (Eur J Med Chem, 2023)
pIC50: −log10 of the molar value. The source made the active and inactive calls. The rule behind the calls is not given here.

Legend:
HCT-116 [1] = assay: Induction of apoptosis in human HCT-116 cells assessed as early apoptotic cells at 1.5 uM incubated for 72 hrs by AnnexinV-FITC/PI staining based analysis (reference value: 1.05%); assay type: functional
HCT-116 [2] = assay: Induction of apoptosis in human HCT-116 cells assessed as viable cells at 1.5 uM incubated for 72 hrs by AnnexinV-FITC/PI staining based analysis (reference value: 98.95%); assay type: functional; settings: read-out: Activity
HCT-116 [3] = assay: Induction of apoptosis in human HCT-116 cells assessed as late apoptotic cells at 7.5 uM incubated for 48 hrs by AnnexinV-FITC/PI staining based flow cytometry (reference value: 0%); assay type: functional
HCT-116 [4] = assay: Induction of cell cycle arrest in human HCT-116 cells assessed as accumulation of cells at S phase at 7.5 uM incubated for 48 hrs by PI staining based flow cytometry (reference value: 14.5%); assay type: functional
HCT-116 [5] = assay: Induction of mitochondrial membrane potential loss in human HCT-116 cells assessed as JC-1 monomer level by measuring green fluorescence intensity at 3 uM incubated for 48 hrs by JC-1 staining based flow cytometry (reference value: 3.28%); assay type: functional
HCT-116 [6] = assay: Induction of apoptosis in human HCT-116 cells assessed as late apoptotic cells at 1.5 uM incubated for 72 hrs by AnnexinV-FITC/PI staining based analysis (reference value: 0%); assay type: functional
HCT-116 [7] = assay: Induction of apoptosis in human HCT-116 cells assessed as increase in Bax protein expression incubated for 48 hrs by western blot analysis; assay type: functional, cell-based; settings: dose 0.3-3 µM
HCT-116 [8] = assay: Induction of DNA double strand breaks in human HCT-116 cells assessed as gammaH2AX accumulation at 3 uM incubated for 48 hrs by immunofluorescence analysis; assay type: functional, cell-based
HCT-116 [9] = assay: Induction of apoptosis in human HCT-116 cells assessed as necrotic cells at 7.5 uM incubated for 48 hrs by AnnexinV-FITC/PI staining based flow cytometry (reference value: 0%); assay type: functional
HCT-116 [10] = assay: Induction of mitochondrial membrane potential loss in human HCT-116 cells assessed as JC-1 aggregate level by measuring red fluorescence intensity at 3 uM incubated for 48 hrs by JC-1 staining based flow cytometry (reference value: 96.72%); assay type: functional
HCT-116 [11] = assay: Induction of apoptosis in human HCT-116 cells assessed as late apoptotic cells at 0.3 uM incubated for 72 hrs by AnnexinV-FITC/PI staining based analysis (reference value: 0%); assay type: functional
HCT-116 [12] = assay: Induction of apoptosis in human HCT-116 cells assessed as early apoptotic cells at 7.5 uM incubated for 72 hrs by AnnexinV-FITC/PI staining based analysis (reference value: 1.05%); assay type: functional
HCT-116 [13] = assay: Inhibition of cell migration in human HCT-116 cells at 1 uM incubated for 24 hrs by wound healing assay; assay type: functional
HCT-116 [14] = assay: Induction of apoptosis in human HCT-116 cells assessed as increase in cleaved PARP protein expression incubated for 48 hrs by western blot analysis; assay type: functional, cell-based; settings: dose 0.3-3 µM
HCT-116 [15] = assay: Induction of apoptosis in human HCT-116 cells assessed as viable cells at 7.5 uM incubated for 48 hrs by AnnexinV-FITC/PI staining based flow cytometry (reference value: 97.89%); assay type: functional; settings: read-out: Activity
HCT-116 [16] = assay: Induction of apoptosis in human HCT-116 cells assessed as viable cells at 0.3 uM incubated for 48 hrs by AnnexinV-FITC/PI staining based flow cytometry (reference value: 97.89%); assay type: functional; settings: read-out: Activity
HCT-116 [17] = assay: Induction of DNA double-strand breaks in human HCT-116 cells assessed as gammaH2AX accumulation incubated for 48 hrs by western blot analysis; assay type: functional, cell-based; settings: dose 0.3-3 µM
HCT-116 [18] = assay: Induction of cell cycle arrest in human HCT-116 cells assessed as accumulation of cells at G0/G1 phase at 7.5 uM incubated for 72 hrs by PI staining based flow cytometry (reference value: 57.2%); assay type: functional
HCT-116 [19] = assay: Induction of cell cycle arrest in human HCT-116 cells assessed as accumulation of cells at S phase at 7.5 uM incubated for 72 hrs by PI staining based flow cytometry (reference value: 16.7%); assay type: functional
HCT-116 [20] = assay: Induction of cell cycle arrest in human HCT-116 cells assessed as accumulation of cells at S phase at 1.5 uM incubated for 72 hrs by PI staining based flow cytometry (reference value: 16.7%); assay type: functional
HCT-116 [21] = assay: Induction of apoptosis in human HCT-116 cells assessed as necrotic cells at 0.3 uM incubated for 72 hrs by AnnexinV-FITC/PI staining based analysis (reference value: 0%); assay type: functional
[22] = biological target: Poly [ADP-ribose] polymerase 2 (Homo sapiens, UniProt Q9UGN5); assay: Inhibition of human PARP-2 by ELISA
HCT-116 [23] = assay: Induction of apoptosis in human HCT-116 cells assessed as early apoptotic cells at 0.3 uM incubated for 72 hrs by AnnexinV-FITC/PI staining based analysis (reference value: 1.05%); assay type: functional
HCT-116 [24] = assay: Induction of cell cycle arrest in human HCT-116 cells assessed as accumulation of cells at G2/M phase at 7.5 uM incubated for 72 hrs by PI staining based flow cytometry (reference value: 25.4%); assay type: functional
HCT-116 [25] = assay: Induction of cell cycle arrest in human HCT-116 cells assessed as accumulation of cells at G0/G1 phase at 7.5 uM incubated for 48 hrs by PI staining based flow cytometry (reference value: 62.1%); assay type: functional
HCT-116 [26] = assay: Induction of mitochondrial membrane potential loss in human HCT-116 cells assessed as JC-1 aggregate level by measuring red fluorescence intensity at 1 uM incubated for 48 hrs by JC-1 staining based flow cytometry (reference value: 96.72%); assay type: functional
HCT-116 [27] = assay: Inhibition of cell migration in human HCT-116 cells at 3 uM incubated for 48 hrs by wound healing assay; assay type: functional
HCT-116 [28] = assay: Induction of apoptosis in human HCT-116 cells assessed as necrotic cells at 7.5 uM incubated for 72 hrs by AnnexinV-FITC/PI staining based analysis (reference value: 0%); assay type: functional
HCT-116 [29] = assay: Induction of mitochondrial membrane potential loss in human HCT-116 cells assessed as JC-1 aggregate level by measuring red fluorescence intensity at 0.3 uM incubated for 48 hrs by JC-1 staining based flow cytometry (reference value: 96.72%); assay type: functional
HCT-116 [30] = assay: Induction of cell cycle arrest in human HCT-116 cells assessed as accumulation of cells at G2/M phase at 0.3 uM incubated for 48 hrs by PI staining based flow cytometry (reference value: 24.7%); assay type: functional
HCT-116 [31] = assay: Induction of apoptosis in human HCT-116 cells assessed as early apoptotic cells at 0.3 uM incubated for 48 hrs by AnnexinV-FITC/PI staining based flow cytometry (reference value: 2.11%); assay type: functional
HCT-116 [32] = assay: Induction of cell cycle arrest in human HCT-116 cells assessed as accumulation of cells at S phase at 1.5 uM incubated for 48 hrs by PI staining based flow cytometry (reference value: 14.5%); assay type: functional
HCT-116 [33] = assay: Induction of cell cycle arrest in human HCT-116 cells assessed as accumulation of cells at G0/G1 phase at 0.3 uM incubated for 72 hrs by PI staining based flow cytometry (reference value: 57.2%); assay type: functional
HCT-116 [34] = assay: Inhibition of cell migration in human HCT-116 cells at 3 uM incubated for 24 hrs by wound healing assay; assay type: functional

Poly [ADP-ribose] polymerase 2, sequence (Q9UGN5 whole entry): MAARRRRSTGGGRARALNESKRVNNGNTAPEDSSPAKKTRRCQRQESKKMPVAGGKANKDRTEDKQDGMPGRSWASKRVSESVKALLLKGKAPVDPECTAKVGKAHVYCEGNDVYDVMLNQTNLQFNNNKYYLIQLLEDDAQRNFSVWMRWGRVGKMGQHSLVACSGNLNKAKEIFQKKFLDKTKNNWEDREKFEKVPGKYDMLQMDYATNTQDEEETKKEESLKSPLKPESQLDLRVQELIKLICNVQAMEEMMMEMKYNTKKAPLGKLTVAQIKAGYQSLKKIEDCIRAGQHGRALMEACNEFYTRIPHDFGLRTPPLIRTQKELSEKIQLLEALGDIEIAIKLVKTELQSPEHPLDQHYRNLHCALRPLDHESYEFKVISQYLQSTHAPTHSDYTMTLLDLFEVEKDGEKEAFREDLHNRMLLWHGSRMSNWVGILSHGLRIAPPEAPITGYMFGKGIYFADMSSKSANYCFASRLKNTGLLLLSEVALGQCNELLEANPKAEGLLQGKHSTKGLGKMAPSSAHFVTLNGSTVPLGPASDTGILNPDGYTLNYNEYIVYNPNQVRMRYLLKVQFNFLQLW

`NC(=O)c1ccccc1OCc1cccc(NC(=O)c2ccc(Br)cc2)c1` showed an Activity (HCT-116 [1]) of 30.42%, a viability at 1.5 µM (HCT-116 [2]) of 69.3% and an Activity (HCT-116 [3]) of 1.19%. For the same compound, the Activity (HCT-116 [4]) was 10.4%, the Activity (HCT-116 [5]) was 50.03% and the Activity (HCT-116 [6]) was 0.26%. The Activity (HCT-116 [7]) was “Dose-Dependent Effect”, the Activity (HCT-116 [8]) was “Active” and the Activity (HCT-116 [9]) was 0.51%. For the same compound, the Activity (HCT-116 [10]) was 49.97%, the Activity (HCT-116 [11]) was 0% and the Activity (HCT-116 [12]) was 79.44%. The inhibition at 1 µM (HCT-116 [13]) was 18%, the Activity (HCT-116 [14]) was “Dose-Dependent Effect” and the viability at 7.5 µM (HCT-116 [15]) was 57.4%. The viability at 0.3 µM (HCT-116 [16]) was 90.4%, the Activity (HCT-116 [17]) was “Dose-Dependent Effect” and the Activity (HCT-116 [18]) was 34.4%. For the same compound, the Activity (HCT-116 [19]) was 20.3%, the Activity (HCT-116 [20]) was 15.6% and the Activity (HCT-116 [21]) was 0%. For the same compound, the pIC50 [22] was 8.63, the Activity (HCT-116 [23]) was 23.69% and the Activity (HCT-116 [24]) was 45.5%. For the same compound, the Activity (HCT-116 [25]) was 49.7%, the Activity (HCT-116 [26]) was 85.84% and the inhibition at 3 µM (HCT-116 [27]) was 43.2%. It also gave an Activity (HCT-116 [28]) of 0.01%, an Activity (HCT-116 [29]) of 90.62% and an Activity (HCT-116 [30]) of 28.6%. It also gave an Activity (HCT-116 [31]) of 9.12%, an Activity (HCT-116 [32]) of 12.5% and an Activity (HCT-116 [33]) of 46.9%. For the same compound, the inhibition at 3 µM (HCT-116 [34]) was 22.3%.
